Laboratory results: paper PMC9146377, “Design and Synthesis of Novel Bis-Imidazolyl Phenyl Butadiyne Derivatives as HCV NS5A Inhibitors” (Pharmaceuticals, 2022)
Where two headings read alike, the source gives them in different places.

Key:
[1] = system: HCV genotype 1b Con-1 subgenomic replicon; assay: Anti-HCV luciferase assay, genotype 1b (Con1) subgenomic replicon in Huh5-2 cells; assay type: cell-based, Hepatitis C virus; conditions: for HCV Replicon 1b SI50: CC50/EC50, Huh5-2 cells
Protocol: (§1) All synthesized compounds were tested against HCV genotype 1b Con-1 subgenomic replicon in the Huh-5-2 stable cell line. Specifically, their activity against viral replication was estimated by measuring firefly luciferase, which is co-expressed by the bicistronic replicon, and their half-maximal effective concentrations (EC50) were determined. In parallel, the half-maximal cytotoxic concentrations (CC50) of the compounds were estimated, and their selective indexes (SI50: CC50/ EC50) were calculated. All novel synthesized compounds were active against HCV 1b with EC50 < 1 µM except for compound 4b (Table 3).
Huh5-2 [65] and Huh7-JFH1 [66] stable cell lines harbor the subgenomic HCV reporter replicon I389luc-ubi-neo/NS3-3′/Con1/5.1 (genotype 1b; strain Con1) and I389luc-ubi-neo/NS3-3′_dg_JFH1 (genotype 2a, JFH1 strain), respectively (kindly provided by R. Bartenschlager, Heidelberg University, Heidelberg, Germany). Huh7.5-3a and Huh7.5-4a stable cell lines harbor the subgenomic HCV reporter replicon S52-SG (Feo) (AII) (genotype 3a; S52 strain) and ED43-SG (Feo) (VYG) (genotype 4a; ED43 strain), respectively (viral constructs kindly provided by C.M. Rice, Rockefeller University, New York, NY, USA). These replicons carry as a first cistron firefly luciferase (F-Luc) and neomycin phosphotransferase genes under the translational control of the HCV internal ribosome entry site (IRES), followed by HCV NS3 to NS5B proteins under the control of the EMCV IRES.
The anti-HCV assay in replicon cells was performed by seeding 1 × 10^4 cells per well in a 96-well plate. After 24 h of incubation at 37 °C (5% CO2) and medium removal, serial dilutions of the test compounds in complete DMEM were added. Cells were lysed after 72 h, and F-Luc activity was measured. The anti-HCV assay for the full-length viral construct H77S.3/GLuc2A was performed after electroporation of Huh7-Lunet cells with viral RNA. Cells were seeded in 96-well plates, the medium was removed 24 h after electroporation, and serial dilutions of the compounds in complete DMEM were added. At 72 h post-treatment, cell supernatants were collected, and G-Luc activity was measured. In addition, the cells were lysed for total protein quantification.
Relative luminescence units (RLU) were expressed as a percentage of the respective units derived from DMSO-treated cells (control). The half-maximal effective concentration (EC50), defined as the concentration of compound that reduces luciferase signal by 50%, was calculated by dose-response curve analysis using Prism 5.0 software (GraphPad Software Inc., San Diego, CA, USA).
The F-Luc activity was measured using the Luciferase Assay System (Promega, Madison, WI, USA), as recommended by the manufacturer. The G-Luc activity was measured using 12 μM coelenterazine (Promega) in assay buffer (50 mM potassium phosphate, pH 7.4, 500 mM NaCl, 1 mM EDTA). Measurements were carried out using a GloMax 20/20 single tube luminometer (Promega) for 10 s. The F-Luc activity was normalized to the total protein amount determined using the Bradford assay reagent (Pierce, Waltham, MA, USA).

[2] = Cytotoxicity assay (intracellular ATP levels) in Huh5-2 replicon cells; assay type: cell-based; conditions: human, Huh5-2 cells, read-out: HCV Replicon 1b CC50
Protocol: as §1
Intracellular ATP levels were measured to determine the cytotoxicity of the compounds in the treated cells. In 96-well plates, 10^4 cells per well were seeded, incubated with serial dilutions of the compounds or DMSO as a control for 72 h at 37 °C (5% CO2) and lysed for ATP measurement. ATP levels were measured using the ViaLight HS BioAssay kit (Lonza, Basel, Switzerland) in a GloMax 20/20 single-tube luminometer (Promega) for 1 s, according to the manufacturer’s protocol. Values were normalized to total protein amounts and used to determine the compound concentration causing 50% cell death (CC50). Nonlinear regression analysis was performed using Prism 5.0 software (GraphPad Software Inc., San Diego, CA, USA).

[3] = Hepatitis C virus, Huh-5-2, 72 h, Huh5-2 cells, Con1 strain, F-Luc, 72 h, mean of three experiments, read-out: HCV Replicon 1b EC50
[4] = Huh5-2 cells, Con1 strain, F-Luc, 72 h, mean of three experiments, read-out: HCV Replicon 1b EC50
[5] = Hepatitis C virus, Huh-5-2, 72 h, read-out: HCV Replicon 1b EC50, Huh5-2 cells, Con1 strain, F-Luc, 72 h, mean of three experiments

Row | SMILES | HCV Replicon 1b SI50 [1] | EC50 [1, 3] | EC50 [1, 4] | CC50 at 72 h [2] | melting point | EC50 [1, 5] | EC50 ([1]; Hepatitis C virus, Huh-5-2, Table S1, in vitro result versus genotype 1b, read-out: NS5A EC50)
1 | COC(=O)N[C@@H](CC(C)C)C(=O)N1CCC[C@H]1c1ncc(-c2ccc(C#CC#Cc3ccc(-c4cnc([C@@H]5CCCN5C(=O)[C@H](CC(C)C)NC(=O)OC)[nH]4)cc3)cc2)[nH]1 [Compound 5b, Dimethyl ((2S,2′S)-((2S,2′S)-((buta-1,3-diyne-1,4-diylbis(4,1-phenylene))bis(1H-imidazole-5,2-diyl))bis(pyrrolidine-2,1-diyl))bis(4-methyl-1-oxopentane-1,2-diyl))dicarbamate] | >6203.47 | 16.1 nM | 16.1 nM | > 100 µM | 124 to 126 °C |  | 
2 | COC(=O)N[C@H](CC(C)C)C(=O)N1CCC[C@H]1c1ncc(-c2cccc(C#CC#Cc3cccc(-c4cnc([C@@H]5CCCN5C(=O)[C@@H](CC(C)C)NC(=O)OC)[nH]4)c3)c2)[nH]1 [Compound 6a, Dimethyl ((2R,2′R)-((2S,2′S)-((buta-1,3-diyne-1,4-diylbis(3,1-phenylene))bis(1H-imidazole-5,2-diyl))bis(pyrrolidine-2,1-diyl))bis(4-methyl-1-oxopentane-1,2-diyl))dicarbamate] | >1034.23 |  | 96.7 nM | > 100 µM | 111 to 113 °C | 96.6 nM | 
3 | COC(=O)N[C@H](CC(C)C)C(=O)N1CCC[C@H]1c1ncc(-c2ccc(C#CC#Cc3ccc(-c4cnc([C@@H]5CCCN5C(=O)[C@@H](CC(C)C)NC(=O)OC)[nH]4)cc3)cc2)[nH]1 [Compound 6b, Dimethyl ((2R,2′R)-((2S,2′S)-((buta-1,3-diyne-1,4-diylbis(4,1-phenylene))bis(1H-imidazole-5,2-diyl))bis(pyrrolidine-2,1-diyl))bis(4-methyl-1-oxopentane-1,2-diyl))dicarbamate] | >1512.63 |  |  | > 100 µM | 129 to 131 °C | 42.1 nM | 66.1 nM
4 | CCOC(=O)N[C@@H](CC(C)C)C(=O)N1CCC[C@H]1c1ncc(-c2ccc(C#CC#Cc3ccc(-c4cnc([C@@H]5CCCN5C(=O)[C@H](CC(C)C)NC(=O)OCC)[nH]4)cc3)cc2)[nH]1 [Compound 7b, Diethyl ((2S,2′S)-((2S,2′S)-((buta-1,3-diyne-1,4-diylbis(4,1-phenylene))bis(1H-imidazole-5,2-diyl))bis(pyrrolidine-2,1-diyl))bis(4-methyl-1-oxopentane-1,2-diyl))dicarbamate] | >1699.23 | 58.9 nM |  | > 100 µM | 118 to 120 °C |  | 
5 | CCOC(=O)N[C@H](CC(C)C)C(=O)N1CCC[C@H]1c1ncc(-c2cccc(C#CC#Cc3cccc(-c4cnc([C@@H]5CCCN5C(=O)[C@@H](CC(C)C)NC(=O)OCC)[nH]4)c3)c2)[nH]1 [Compound 8a, Diethyl ((2R,2′R)-((2S,2′S)-((buta-1,3-diyne-1,4-diylbis(3,1-phenylene))bis(1H-imidazole-5,2-diyl))bis(pyrrolidine-2,1-diyl))bis(4-methyl-1-oxopentane-1,2-diyl))dicarbamate] | >1170.82 |  | 85.4 nM | > 100 µM | 109 to 111 °C | 85.4 nM | 
6 | CCOC(=O)N[C@H](CC(C)C)C(=O)N1CCC[C@H]1c1ncc(-c2ccc(C#CC#Cc3ccc(-c4cnc([C@@H]5CCCN5C(=O)[C@@H](CC(C)C)NC(=O)OCC)[nH]4)cc3)cc2)[nH]1 [Compound 8b, Diethyl ((2R,2′R)-((2S,2′S)-((buta-1,3-diyne-1,4-diylbis(4,1-phenylene))bis(1H-imidazole-5,2-diyl))bis(pyrrolidine-2,1-diyl))bis(4-methyl-1-oxopentane-1,2-diyl))dicarbamate] | >1289.98 | 77.5 nM |  | > 100 µM | 129 to 132 °C |  | 
7 | COC(=O)N[C@H](C(=O)N1CCC[C@H]1c1ncc(-c2cccc(C#CC#Cc3cccc(-c4cnc([C@@H]5CCCN5C(=O)[C@@H](NC(=O)OC)c5ccccc5)[nH]4)c3)c2)[nH]1)c1ccccc1 [Compound 9a, Dimethyl ((1S,1′S)-((2S,2′S)-((buta-1,3-diyne-1,4-diylbis(3,1-phenylene))bis(1H-imidazole-5,2-diyl))bis(pyrrolidine-2,1-diyl))bis(2-oxo-1-phenylethane-2,1-diyl))dicarbamate] | >1611.86 |  | 62 nM | > 100 µM | 125 to 127 °C | 62 nM | 
8 | COC(=O)N[C@@H](C(=O)N1CCC[C@H]1c1ncc(-c2ccc(C#CC#Cc3ccc(-c4cnc([C@@H]5CCCN5C(=O)[C@H](NC(=O)OC)c5ccccc5)[nH]4)cc3)cc2)[nH]1)c1ccccc1 [Compound 10b, Dimethyl ((1R,1′R)-((2S,2′S)-((buta-1,3-diyne-1,4-diylbis(4,1-phenylene))bis(1H-imidazole-5,2-diyl))bis(pyrrolidine-2,1-diyl))bis(2-oxo-1-phenylethane-2,1-diyl))dicarbamate] | >1180.77 | 84.7 nM |  | > 100 µM | 125 to 127 °C |  | 
